Experimental data from US20230183751A1, “HDR ENHANCERS” (OXFORD GENETICS LIMITED, priority 2020, published 2023).

Key:
[1] = tested on: HDR in HEK293 reporter cell line (truncated EGFP); experiment: HDR assay with paired nickases Cas9n D10A RNP and ssOligo donor, EGFP-positive cells by FACS; assay type: cell-based, human; settings: FIG. 3; for dose-dependency of HDR efficiency: three concentrations (low, medium, high); for concentration with highest HDR efficiency: three concentrations tested
Experimental: More specifically, an HDR assay using a HEK reporter cell line containing truncated EGFP may be used. These cells may be transfected with a transfection complex containing the CRISPR endonuclease and a donor sequence. Cas9 RNPs may be prepared by following the manufacturers' guidelines. The transfection complex may be prepared by adding Cas9 RNP or Cas9 nickase RNP, along with ssOligo donor and lipofectamine 2000 in Optimem. Reagents should be mixed well and incubated for 20 mins. After 20 mins, 50 μlof transfection complex (at an optimal concentration—see the Examples herein) may be transferred in a 96 well plate and 50 μlHEK293 reporter cell line suspension (9×10^5 cells/ml) added followed by 50 μl of cell culture medium containing appropriate concentration(s) of inhibitor(s). Cells may be incubated at 37° C. in a CO2 incubator for 24 hours and then inhibitor-containing media should be replaced with fresh media without inhibitor. Cells are then further incubated for 48 hours. After 48 hours, cells may be trypsinized and resuspended in PBS containing 10% FBS. Samples may be run on FACS and the percentage of EGFP in the population measured. Presence of EGFP directly correlates with HDR efficiency. […]
To understand if inhibitors have any influence on HDR mediated by paired nickases, we carried out an HDR assay in the presence of the small molecule inhibitor library. Briefly, in vitro reconstituted Cas9n D10A RNP with gRNA-X1 and gRNA-X2 was transfected into the reporter cell line along with ssOligo donor in the presence of different small molecule inhibitors. Inhibitor-containing media was replaced with fresh media after 24 hours and the cells were then further incubated for 48 hours. After 48 hours, the cells were trypsinized and resuspended in 10% FBS containing PBS and analysed by FACS. EGFP-positive cells were monitored; these represented successful HDR events. […]

HEK reporter cell line = experiment: cell-viability assay with alamar blue reagent; assay type: cell-based, human; settings: 72 hours
Experimental: To investigate the effect of this library on HDR efficiency and to identify novel molecules which would increase the HDR mediated gene editing efficiency, first we carried out a cell-viability assay using the HEK reporter cell line and alamar blue reagent. The experiment was performed to rule out any toxicity associated with the small molecule library. Briefly, 3 different concentration of inhibitors (0.1 μM, 1 μM and 10 μM) were added in the cells in a 96 well plate format and plates were incubated for 72 hours. After 72 hours, the media were replaced with alamar blue containing media and the plates were further incubated for 3 hours and then read on a Fluorstar omega plate reader. The table gives the results obtained with the subsequently-selected inhibitors, together with a range of other potential inhibitors.

| Compound | dose-dependency of HDR efficiency [1] | % survival (HEK reporter cell line; 0.1 μM inhibitor) | % survival (HEK reporter cell line; 1 μM inhibitor) | % survival (HEK reporter cell line; 10 μM inhibitor) | concentration with highest HDR efficiency [1] |
| --- | --- | --- | --- | --- | --- |
| COc1ccc(CCC(=O)Nc2nc3ccc(Cl)cc3s2)cc1OC [KY02111] | did not show any significant dose-dependency | 100.52 ± 2.05% | 100.86 ± 1.83% | 95.18 ± 2.27% |  |
| CCCCc1nc2cc(/C=C/C(=O)NO)ccc2n1CCN(CC)CC [SB939] | moderate decreases in HDR efficiency upon increasing the inhibitor concentration | 80.99 ± 1.01% | 15.56 ± 2.26% | 2.25 ± 0.31% | 0.05 µM |
| CN(C)[C@H]1CN(C2CCc3cccc(F)c32)C[C@@H]1c1ccc(N2CCN(S(C)(=O)=O)CC2)cc1 (some centres unmarked) [A395] | did not show any significant dose-dependency | 100.35 ± 1.4% | 103.27 ± 0.32% | 87.94 ± 9.49% |  |
| O=c1cc(N2CCOCC2)oc2c(-c3cccc4c3sc3ccccc34)cccc12 [NU7441] | dose-dependent increases in HDR efficiency | 103.58 ± 4.44% | 88.88 ± 3.55% | 22.95 ± 0.98% | 2 µM |
| Cl.O=C([C@@H](Cc1cccc(C(F)(F)F)c1)NS(=O)(=O)c1cc(F)c2c(c1)CCNC2)N1CCCC1 [(R)-PFI2 hydrochloride] | dose-dependent increases in HDR efficiency | 102.58 ± 0.88% | 101.51 ± 4.1% | 96.42 ± 0.64% | 20 µM |
| Clc1cc2c(NC3CCCC3)nnc(-c3ccncc3)c2cc1Cl [A196] | dose-dependent increases in HDR efficiency | 105.84 ± 0.05% | 107.75 ± 6.83% | 107.43 ± 0.21% | 20 µM |
| O=C(Nc1c[nH]nc1-c1nc2cc(CN3CCOCC3)ccc2[nH]1)NC1CC1 [AT9283] | moderate decreases in HDR efficiency upon increasing the inhibitor concentration |  |  |  | 0.05 µM |
| CCN(C(=O)CO)[C@H]1CN(/C(=N\C#N)Nc2cccc(OC(F)F)c2)N=C1c1ccc(Cl)c(Cl)c1 [BAY598] | dose-dependent increases in HDR efficiency | 102.45 ± 0.9% | 102.92 ± 0.42% | 101.44 ± 8.52% | 20 µM |
| O=c1cc(N2CCOCC2)oc2c1ccc1ccccc12 [NU7026] |  | 100.08 ± 4.01% | 100.14 ± 4.13% | 83.17 ± 1.44% |  |
